Measurements: patent US9505834B2, “Methods for controlling the galactosylation profile of recombinantly-expressed proteins” (AbbVie Inc., priority 2011, dated 2016)
Like-named read-outs stand apart in the source and are kept apart here.

Assays:
[1] = test system: adalimumab-producing CHO cell line #2; assay: Example 4 culture growth & productivity; assay type: cell-based, Chinese Hamster; conditions: galactose 0 to 20 mM and/or manganese chloride 0 to 40 μM
Method: (§1) For all studies with CHO cell lines described throughout this invention, samples were collected daily and measured for cell density and viability using a Cedex cell counter. Retention samples for titer analysis via Poros A method were collected by centrifugation at 12,000 RPM for 5 min when the culture viability began declining. The cultures were harvested by collecting 125 mL aliquots and centrifuging at 3,000 RPM for 30 min when culture viability was near or below 50%. All supernatants were stored at −80° C. until analysis.
(§2) Growth and production media for the adalimumab-producing CHO cell line #2 were prepared using a proprietary Life Technologies Gibco chemically defined media, GIA-1. […] All media were filtered through Corning 0.5 L or 1 L filter systems (0.22 μm PES) and stored at 4° C. until use.
Upon thaw, cells were expanded for 5 to 8 (2 to 3 day each) passages in a combination of 250 mL, 500 mL, and 1000 mL Corning vented non-baffled shake flasks. Production cultures were initiated in duplicate 500 mL Corning vented non-baffled shake flasks (200 mL working volume) at an initial VCD of approximately 0.5×10^6 cells/mL. Cultures were maintained on orbital shakers at 180 RPM in a dry incubator at 35° C. and 5% CO2. A glucose solution (1.25% (v/v) of 40% solution) was fed when the media glucose concentration fell below 3 g/L. […]

[2] = test system: adalimumab-producing CHO cell line #3; assay: Example 5 culture growth & productivity; assay type: cell-based, Chinese Hamster; conditions: 30 mM galactose alone
Method: as §1
Growth and production media for the adalimumab-producing CHO cell line #3 were prepared using the proprietary Life Technologies Gibco chemically defined media, GIA-1.
Upon thaw, cells were expanded in Corning vented non-baffled shake flasks maintained on orbital shakers at 140 RPM, and in 10 L cell bags (2 L working volume) maintained at 25 RPM, 7° angle, and 0.25 SLPM airflow in a dry incubator at 36° C. and 5% CO2. Production cultures were initiated in 3 L bioreactors (1.4 L initial working volume) at 36° C., 30% dissolved oxygen, 200 RPM, and pH 6.9±0.2. A fixed split ratio of cells to media of 1:6.7 was utilized to initiate the production stage cultures. A temperature shift was performed when the culture VCD reached a value higher than 5×10^6 cells/mL. […]

[3] = test system: adalimumab-producing CHO cell line; assay: Example 3 oligosaccharide analysis, hydrolysate-based media, batch shake flasks; assay type: cell-based, Chinese Hamster
Method: as §1
(§3) For all studies, the harvest samples were Protein A purified and prepared for the oligosaccharide assay using the following procedures. As a first step in the process of establishing the identity and quantifying the oligosaccharides, they are released from the protein by enzymatic digestion with N-glycanase. Once the glycans are released, the free reducing end of each glycan is labeled by reductive amination with a fluorescent tag, 2-aminobenzamide (2-AB). The resulting labeled glycans are separated by normal-phase HPLC (NP-HPLC) in acetonitrile: 50 mM ammonium formate, pH 4.4, and detected by a fluorescence detector. Quantitation is based on the relative area percent of detected sugars. Throughout this invention, the relative area percentages of the agalactosyl fucosylated biantennary oligosaccharides, denoted as NGA2F+NGA2F-GlcNAc sum, and the galactose-containing fucosylated biantennary oligosaccharides NA1F+NA2F sum are reported and discussed.
(§4) All media were filtered through Corning 0.5 L or 1 L filter systems (0.22 μm PES) and stored at 4° C. until use.
(§5) Production cultures were initiated in duplicate 500 mL Corning vented non-baffled shake flasks (200 mL working volume) at an initial VCD of approximately 0.5×10^6 cells/mL. Cultures were maintained on orbital shakers at 110 RPM in a dry incubator at 35° C. and 5% CO2. A glucose solution (1.25% (v/v) of 40% solution) was fed when the media glucose concentration fell below 3 g/L.

[4] = test system: adalimumab-producing CHO cell line #2; assay: Example 4 oligosaccharide analysis, CDM GIA-1, batch shake flasks; assay type: cell-based, Chinese Hamster
Method: as §1, §3, §2
Upon thaw, cells were expanded for 5 to 8 (2 to 3 day each) passages in a combination of 250 mL, 500 mL, and 1000 mL Corning vented non-baffled shake flasks. Production cultures were initiated in duplicate 500 mL Corning vented non-baffled shake flasks (200 mL working volume) at an initial VCD of approximately 0.5×10^6 cells/mL. Cultures were maintained on orbital shakers at 180 RPM in a dry incubator at 35° C. and 5% CO2. A glucose solution (1.25% (v/v) of 40% solution) was fed when the media glucose concentration fell below 3 g/L.
Galactose was supplemented at the following levels in production media: 0, 10, and 20 mM. […] This study was run in 2 blocks.

[5] = test system: CHO cell line producing mAb #2
Method: as §1
Growth and production media for the mAb #2 producing CHO cell line were prepared using the proprietary Life Technologies Gibco chemically defined media, GIA-1.
Upon thaw, cells were expanded in Corning vented non-baffled shake flasks maintained on orbital shakers at 140 RPM, and in 10 L cell bags (2 L working volume) maintained at 25 RPM, 7° angle, 0.25 SLPM airflow in a dry incubator at 36° C. and 5% CO2. Production cultures were initiated in 3 L bioreactors (1.5 L initial working volume) at 36° C., 25% dissolved oxygen, 200 RPM, and pH 7.0. The chemically-defined feed from Life Technologies Gibco JCL-5 was added as follows: 3% (v/v)—day 3, 5%—day 5, 7%—day 7, 10%—day 9, and 10%—day 11. […] Bioreactors were harvested at viability of approximately 70% or below or on production day 15, whichever condition occurred first. […]

[6] = test system: adalimumab-producing CHO cell line; conditions: 10 μM manganese chloride; within historical variation
Method: as §1, §4, §5

Compound | culture growth, viability profiles, and harvest titer [1] | growth profile [2] | maximum decrease in the NGA2F+NGA2F-GlcNac sum ([3]; galactose alone up to 40 mM) | maximum increase in the NA1F+NA2F sum ([3]; galactose alone up to 40 mM) | decrease in the NGA2F+NGA2F-GlcNac sum ([4]; 10 mM galactose alone) | maximum decrease in the NGA2F+NGA2F-GlcNac sum ([4]; 20 mM galactose alone) | maximum increase in the NA1F+NA2F sum ([4]; 20 mM galactose alone) | growth profile ([5]; 25 μM manganese chloride alone) | growth profile ([5]; manganese chloride 50 μM or 75 μM) | decrease in the NGA2F+NGA2F-GlcNac sum ([3]; manganese chloride alone, range 0 to 40 μM, within assay variability) | decrease in the NGA2F+NGA2F-GlcNac sum ([4]; 10 μM manganese chloride alone) | maximum decrease in the NGA2F+NGA2F-GlcNac sum ([4]; 20 μM manganese chloride alone) | maximum increase in the NA1F+NA2F sum ([4]; 20 μM manganese chloride alone) | maximum VCD compared to all other cultures [6]
O=C[C@H](O)[C@@H](O)[C@@H](O)[C@H](O)CO [galactose, D(+)Galactose] | comparable to the control cultures | grew slower and reached a lower peak VCD | 4% | 4% | 6% | 9% | 10% |  |  |  |  |  |  | 
Manganese (II) Chloride [manganese chloride] | comparable to the control cultures |  |  |  |  |  |  | grew slower after production day 7 | growth profiles comparable to the control culture | approximately 1% | 18% | 22% | 23% | slightly higher maximum VCD
